Target: T1, human sGC α subunit and β subunit (Homo sapiens, UniProt Q02153)
T1 construct: expressed in transfected cells
T1 sequence (Q02153 1-619): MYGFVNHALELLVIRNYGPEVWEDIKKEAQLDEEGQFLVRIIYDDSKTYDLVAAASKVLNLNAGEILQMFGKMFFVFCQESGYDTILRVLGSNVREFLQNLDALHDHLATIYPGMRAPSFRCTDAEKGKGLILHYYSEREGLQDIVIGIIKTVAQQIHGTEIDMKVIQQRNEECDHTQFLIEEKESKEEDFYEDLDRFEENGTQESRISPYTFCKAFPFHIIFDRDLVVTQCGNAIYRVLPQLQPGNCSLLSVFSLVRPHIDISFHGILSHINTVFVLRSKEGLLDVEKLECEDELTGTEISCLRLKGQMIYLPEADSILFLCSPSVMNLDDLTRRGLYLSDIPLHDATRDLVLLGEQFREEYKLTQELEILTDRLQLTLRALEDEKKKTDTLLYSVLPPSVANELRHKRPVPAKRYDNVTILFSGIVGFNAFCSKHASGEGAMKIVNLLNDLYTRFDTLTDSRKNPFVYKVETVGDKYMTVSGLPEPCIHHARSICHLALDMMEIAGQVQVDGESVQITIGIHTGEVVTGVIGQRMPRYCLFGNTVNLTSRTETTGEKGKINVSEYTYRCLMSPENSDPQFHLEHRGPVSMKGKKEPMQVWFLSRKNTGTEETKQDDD
T1 sequence (Q02108 1-690 partner): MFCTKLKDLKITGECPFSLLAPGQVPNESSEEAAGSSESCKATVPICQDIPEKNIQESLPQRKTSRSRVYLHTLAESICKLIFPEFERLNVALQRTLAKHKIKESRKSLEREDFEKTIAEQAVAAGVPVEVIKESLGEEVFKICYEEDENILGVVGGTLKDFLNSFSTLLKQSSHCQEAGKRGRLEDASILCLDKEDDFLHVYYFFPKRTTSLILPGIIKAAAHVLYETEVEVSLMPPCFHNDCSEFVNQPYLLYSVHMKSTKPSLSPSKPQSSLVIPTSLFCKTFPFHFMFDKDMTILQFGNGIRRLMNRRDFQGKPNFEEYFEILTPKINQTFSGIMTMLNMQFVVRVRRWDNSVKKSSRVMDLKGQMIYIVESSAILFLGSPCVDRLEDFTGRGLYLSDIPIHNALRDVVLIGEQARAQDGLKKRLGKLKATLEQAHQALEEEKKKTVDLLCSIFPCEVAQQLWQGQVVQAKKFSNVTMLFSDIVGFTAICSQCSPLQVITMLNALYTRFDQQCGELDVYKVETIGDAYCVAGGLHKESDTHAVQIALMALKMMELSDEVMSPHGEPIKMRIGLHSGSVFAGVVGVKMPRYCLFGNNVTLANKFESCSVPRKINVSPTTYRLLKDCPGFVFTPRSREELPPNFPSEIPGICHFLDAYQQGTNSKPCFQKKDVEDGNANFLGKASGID
Experiment: Heme-independent property of sGC activating function (EC50 ratio, CHO-K1 cells expressing human sGC and mouse CNGA2)
Type: cell-based
Settings: EC50 in the absence of ODQ divided by EC50 in the presence of ODQ, sGC activation
Experimental: For the assay, Chinese hamster ovary cells (CHO-K1 cells) in which human sGC α subunit and β subunit and mouse cyclic nucleotide gated channel (CNGA2) are stably expressed were used.
CHO-K1 cells in which human sGC and mouse CNGA2 are stably expressed were cultured at 37° C. in F-12 medium containing 10% (v/v) fetal bovine serum (FBS), penicillin (100 U/mL), streptomycin (100 μg/mL), G418 (250 μg/mL), and zeocin (250 μg/mL). The cells were suspended in the culture medium and seeded onto a 96-well plate, and then cultured at 37° C. for 24 hours. After washing with assay buffer 1 (140 mmol/L sodium chloride, 5 mmol/L potassium chloride, 0.5 mmol/L magnesium chloride, 0.01 mmol/L calcium chloride, 10 mmol/L glucose, 0.4 mmol/L magnesium sulfate, 10 mmol/L 4-(2-hydroxyethyl)piperazin-1-ylethane sulfonic acid, and 125 μmol/L sulfinpyrazone, pH 7.4), an indicator solution in which FURA2-AM as a fluorescent Ca^2+ indicator is dissolved at concentration of 5 μmol/L in assay buffer 1 was added followed by culture for 60 minutes at 37° C. The indicator solution was removed. After washing with assay buffer 1, the test compound solution was added and incubated for 10 minutes at room temperature. The plate was placed in a fluorometer (Flex Station II, Molecular Devices, LLC), and then the intracellular calcium concentration was measured as fluorescence intensity ratio which is obtained from each excitation wavelength (excitation wavelength of 340 nm and 380 nm and detection wavelength of 510 nm).
The test compound solution was prepared by dissolving each of the test compounds in DMSO to a concentration of 10 mmol/L, and then adding the assay buffer 2 (140 mmol/L sodium chloride, 5 mmol/L potassium chloride, 0.5 mmol/L magnesium chloride, 1 mmol/L calcium chloride, 10 mmol/L glucose, 0.4 mmol/L magnesium sulfate, 10 mmol/L 4-(2-hydroxyethyl)piperazin-1-ylethane sulfonic acid, 125 μmol/L sulfinpyrazone, 100 μmol/L isobutylmethylxanthine, 10 μmol/L 1H-[1,2,4]-oxadiazole[4,3-a]quinoxalin-1-one (hereinbelow, ODQ), pH 7.4) for dilution to have test concentration of 10 μmol/L. For the evaluation of a case in which ODQ is not contained, the same evaluation was performed except that ODQ is excluded from assay buffer 2. As a control solution, a DMSO solution was used instead of the test compound solution.
The activity of the test compound corresponds to the increase ratio (%) of the sGC activity at the time of adding the test compound solution with respect to the sGC activity at the time of adding the control solution, and it was calculated by dividing the fluorescence intensity ratio at the time of adding the test compound by the fluorescence intensity ratio of the control solution and subtracting the sGC activity (100%) at the time of adding the control solution.
For the representative compounds, activity was measured in the same manner as Test Example 1 at each test concentration of 0.0001, 0.001, 0.003, 0.01, 0.03, 0.1, 1, and 10 μmol/L.
The degree of heme-independent property of each test compound with regard to sGC activating function was obtained by dividing, for EC50 measured from the concentration-activation curve which has been established from the above, EC50 in the absence of ODQ by EC50 in the presence of ODQ. Specifically, the smaller the EC50 ratio is, the less the change in sGC activating function is, the change in the function being caused by the presence or absence of ODQ, and thus it is found to be more heme-independent.
EC50 value was obtained by measuring the activity of each compound to be tested at concentrations of 0.0001, 0.001, 0.003, 0.01, 0.03, 0.1, 1, and 10 μmol/L and performing the calculation using four-parameter logistics model using Assay Explorer (Accelrys).

Row | EC50 Ratio (ODQ−/ODQ+) | SMILES
1 | 3.08 | O=C(O)CCCCN(CCc1ccccc1OCc1ccc(CCc2ccccc2)cc1)Cc1ccc(C(=O)O)cc1 [Cinaciguat, reference compound]
2 | 1.40 | O=C(O)CCCCN(CCc1ccccc1OCc1ccc(SCc2ccccc2)cc1)C1CCCc2cc(C(=O)O)ccc21 (stereo not drawn) [Example 15, 5-{N-[2-[2-(4-Benzylsulfanylbenzyloxyl)phenyl]ethyl]-N-(4-carboxybutyl)amino}-5,6,7,8-tetrahydronaphthalene-2-carboxylic acid]
3 | 1.71 | O=C(O)CCCCN(CCc1ccccc1OCc1cccc2c1CCCC2)C1CCCc2cc(C(=O)O)ccc21 (stereo not drawn) [Example 29, 5-{N-(4-Carboxybutyl)-N-[2-[2-(5,6,7,8-tetrahydronaphthalene-1-ylmethoxy)phenyl]ethyl]amino}-5,6,7,8-tetrahydronaphthalene-2-carboxylic acid]

Source: patent US9290440B2, “Bicyclic compound” (TOA EIYO LTD., priority 2012, dated 2016)
